Key:
[1] = tested on: hPDLF / CD14+ monocyte co-culture; experiment: TRAP-positive multinucleated osteoclasts on bone slices after seven-day co-culture; format: cell-based, human
Protocol: Culture primary human periodontal-ligament fibroblasts (hPDLFs) and autologous CD14^+ monocytes in a trans-well co-culture that recapitulates the paracrine crosstalk driving osteoclastogenesis. […] At 48 h collect supernatants and lysates.
• a. […] Secondary Read-Outs: • a.

[2] = tested on: human periodontal ligament cells (hPDLCs); experiment: IL-1β and TNF-α in supernatant (ELISA) of LPS-challenged hPDLCs under CoCl2; format: cell-based; settings: 2 μM simvastatin, LPS 1 μg/ml, vs LPS-Veh
[3] = tested on: RAW 264.7 pre-osteoclasts; experiment: Osteoclastogenesis: hPDLC medium on RAW 264.7 pre-osteoclasts, TRAP staining; format: cell-based
[4] = tested on: human periodontal ligament cells (hPDLCs); experiment: Cell viability (MTT) of hPDLCs; format: cell-based; settings: Day 1 (24 h)
[5] = tested on: human periodontal-ligament fibroblasts (hPDLFs) and CD14+ monocytes; experiment: hPDLF / CD14+ monocyte trans-well co-culture, ELISA of supernatants; format: cell-based
Protocol: Culture primary human periodontal-ligament fibroblasts ([…]) and autologous CD14^+ monocytes in a trans-well co-culture that recapitulates the paracrine crosstalk driving osteoclastogenesis. After 24 h equilibration, expose triplicate wells to: (i) vehicle (0.1% DMSO); […] At 48 h collect supernatants and lysates. • a. […] Secondary Read-Outs: • a.

hPDLF monolayers = experiment: Scratch-wound closure in hPDLF monolayers; format: cell-based, human; settings: over 24 h after treatment
[6] = cited from earlier work

With `COC(=O)CNC(=O)C(=O)OC` [DMOG] the “effect on osteoclast formation” value ([1]; DMOG 1 mM) was “increases”.
In the case of `CCC(C)(C)C(=O)O[C@H]1C[C@@H](C)C=C2C=C[C@H](C)[C@H](CC[C@@H]3C[C@@H](O)CC(=O)O3)[C@H]21` [SIMV, simvastatin], the “IL-1β (24 h), decrease (↓)” value [2] is reported as “↓ 25%”, the “TNF-α (24 h), decrease (↓)” value [2] is reported as “↓ 20%” and the “TRAP+ osteoclasts (cells per well)” value ([3]; 2 μM simvastatin) is reported as 85 cells per well.
In the case of `CS(=O)(=O)c1ccc(Oc2cc(F)cc(C#N)c2)c2c1[C@H](O)[C@H](F)[C@@H]2F` [Belzutifan, belzutifan], the “reduction in osteoclast formation” value ([3]; at 1%) is reported as ≥ 65%, the “Viability (% of No-Stim)” value [4] is reported as > 90% and the “cut of RANKL and pro-inflammatory cytokines versus vehicle” value ([5]; ELISA at 48 h, belzutifan 0.1, 1, 10 nM) is reported as ≥ 70%. For the same compound, the “VEGF preserved, of VEGF seen in vehicle” value ([5]; VEGF-A secretion, 48 h) was ≥ 80%, the scratch-wound closure kinetics (hPDLF monolayers) was “retain normal closure kinetics” and the “cut of osteoclast formation” value ([1]; at 1 nM) was > 60%. The “solubility in DMSO” value ([6]; DMSO, 25° C.) was “≈ 77 mg mL-1”, the solubility in ethanol ([6]; ethanol) was “sparingly soluble” and the solubility in water ([6]; water across pH 1-8) was “practically insoluble”.

— patent US12409160B1, “Compositions and methods for treatment of peri-implantitis and periodontitis” (Cusp Biosciences, Inc., priority 2025, dated 2025)
